Source: patent US20120131697A1, “GENE ENCODING AUXIN RECEPTOR PROTEIN DERIVED FROM RICE AND USE THEREOF” (REPUBLIC OF KOREA (MANAGEMENT: RURAL DEVELOPMENT …, priority 2009, published 2012)
One block for each molecule: values may come before it.

Legend:
ABP57 = ABP57 (Oryza sativa subsp. japonica, UniProt B7ELI0); assay: Scatchard analysis of binding between recombinant ABP57 and auxin hormone IAA; set-up: species or system rice; details: recombinant protein
[1] = test system: proton pump in plasma membrane; assay: Activation of proton pump in rice plasma membrane by ABP57 protein (fluorescence analyzer, Hill plot); type: biochemical
Experimental: The purified protein and the proton pump in plasma membrane, which had been separated from rice, were admixed with each other, and then the activity of proton pump was measured by fluorescence analyzer.
The change in degree of activating proton pump according to concentration of the recombinant protein was measured and analyzed by Hill plot analysis. […] Further, this value was very close to the Hill coefficient of 0.97, which was obtained by previous studies for the interaction between the proton pump and natural ABP57 (FIG. 8).

Kd (ABP57; FIG. 9, read-out: IAA dissociation constant): 3.6 µM
number of binding site (ABP57; corresponds to low affinity binding site of natural ABP57): 1
Molecule: O=C(O)Cc1c[nH]c2ccccc12 [IAA, indole-3-acetic acid]

B1: recombinant protein: recombinant auxin receptor protein ABP57 from rice, expressed in E. coli as MBP fusion, MBP removed (SEQ ID NO: 1) (protein, listed as Oryza sativa)
chain: MAEIVSSVVVHEAVNQIIHGLVNWNERKSSAEENMERLEMAHIRLEAALETSCKWRITDSSLLCWQKKLKRAAQECDDTLRKCRQRILEQEEAEQEVRNSSIPRRIAHATKSLVSSLFYSNIDGSCRSAVRRFEWFADGANEFLRFVEFGGTPHQYLFFDPLIRQLLAGKTLEYKLVSENKYRLFVIRPFCISENRIEARLIFDSKNASALEDDFFLCMLLQVSESVDILGIVIKCLQLFNPHFMSTAESVRNELTQLPSQDFTWVPYAESCHKKHWDNIHSITTQWFRPNPLCCKQHGQNHSCESSNLGMPSVQGVSLGPVIEVSLQCHVPVPEFREQGTIVKGKPSLKKCPHMKVDLVYTPHGSSQDLLPEIKSSVIEVINGDKQHCLHTNIALELMEEIMLPRAVDCFHENAEAKLYQMLWKSKHGGAYLQVMKATMNTRSTQRTIRGSRKAKLLQQQGHKTQHRTNAISDFLNLWSAHAPVQLQGSILDWIQKEKEAQLAPPLLRLKF
Hill coefficient ([1]; degree of activating proton pump according to concentration of recombinant protein, Hill plot, FIG. 8): 0.94
activity of proton pump ([1]; purified recombinant protein admixed with proton pump in plasma membrane separated from rice, FIG. 7): increase in the activity of proton pump
